From article PMC12396409, “Screening and hit evaluation of a microbial metabolite library against the pathogenic Plasmodium falciparum and Toxoplasma gondii parasites” (International Journal for Parasitology: Drugs and Drug …, 2025)

Legend:
[1] = tested on: P. falciparum 3D7 parasites; experiment: P. falciparum growth inhibition assay, 1-cycle (72 h treatment), SYBR DNA staining (library screen at 2 μg/mL and dose-response); format: cell-based, Plasmodium falciparum; conditions: P. falciparum 3D7, 72 h, library screen at 2 μg/mL, % growth; for Pf_72h_%Growth_Rep1: replicate 1; for Pf_72h_%Growth_Rep2: replicate 2
[2] = tested on: P. falciparum 3D7 parasites; experiment: P. falciparum growth inhibition assay, 2-cycle (120 h treatment), delayed-death screen and dose-response; format: cell-based, Plasmodium falciparum; conditions: P. falciparum 3D7, 120 h, library screen at 2 μg/mL, % growth; for Pf_120h_%Growth_Rep1: replicate 1; for Pf_120h_%Growth_Rep2: replicate 2
[3] = tested on: T. gondii RH strain (RH-Tub-eYFP) tachyzoites; experiment: microbe, parasite or virus in culture; format: cell-based, Toxoplasma gondii; conditions: T. gondii RH, 72 h, library screen at 2 μg/mL, % growth; for Tg_72h_%Growth_Rep1: replicate 1; for Tg_72h_%Growth_Rep2: replicate 2

Row | Structure (SMILES) | Pf_72h_%Growth_Rep1 [1] | Pf_72h_%Growth_Rep2 [1] | Pf_120h_%Growth_Rep1 [2] | Pf_120h_%Growth_Rep2 [2] | Tg_72h_%Growth_Rep1 [3] | Tg_72h_%Growth_Rep2 [3]
1 | COc1cc(O)c2c(=O)oc3c(O)c(OC)cc(C)c3c2c1 [BIA-G1559] | 89.69% | 92.13% | 94.64% | 147.16% | 136.29% | 91.52%
2 | COC1=C(OC)C(=O)[C@@H](C)[C@H](C)C1=O [BIA-G1680] | 4.48% | 3.13% | 27.26% | 12.29% | 146.51% | 97.35%
3 | CC1=C[C@H](O/C=C2/C(=O)O[C@@H]3c4ccccc4C[C@H]23)OC1=O [BIA-G1793] | 84.39% | 84.87% | 86.54% | 104.67% | 120.90% | 91.67%
4 | COC1C=CC=C(C)C(=O)NC2=CC(=O)C=C(C2=O)C(OC)C(C)CC(OC)C(OC)C(C)C=C(C)C1OC(N)=O (stereo not drawn) [BIA-H1036] | 51.92% | 44.34% | 68.16% | 41.77% | 133.21% | 80.30%
5 | CCCC(O)C(O)C1CC(OC)=CC(=O)O1 (stereo not drawn) [BIA-H1068] | 88.88% | 77.83% | 95.79% | 147.07% | 107.81% | 92.55%
6 | CCCCCC(=O)NC1CCOC1=O (stereo not drawn) [BIA-H1495] | 85.11% | 87.66% | 97.98% | 95.38% | 133.00% | 97.80%
7 | CCCCCCCCCCCCCCCC(=O)NC1CCOC1=O (stereo not drawn) [BIA-H1500] | 91.73% | 78.97% | 95.21% | 120.58% | 108.53% | 91.16%
8 | Oc1cccc2nc3ccccc3nc12 [BIA-H1520] | 84.93% | 98.32% | 70.83% | 82.39% | 90.90% | 78.11%
9 | Cc1cc(O)c(O)c2oc(=O)c3c(O)cc(O)cc3c12 [BIA-H1558] | 87.28% | 114.26% | 93.99% | 107.81% | 100.18% | 87.83%
10 | COc1c(O)c(C)c(C)c(O)c1OC [BIA-H1651] | 6.09% | 2.27% | 17.29% | 12.27% | 138.57% | 100.12%
11 | Cc1cc(O)cc(=O)o1 [BIA-H1736] | 86.06% | 85.31% | 102.52% | 94.50% | 113.92% | 93.67%
12 | CC1OC(=O)C2CC3CCCCC3C(C=CC3CCCC(C)N3C)C12 (stereo not drawn) [BIA-H1744] | 66.16% | 101.99% | 64.50% | 86.77% | 122.85% | 95.17%
13 | CC(=O)OC1CCC2(C)C(CCC3C2CC(=O)C2(C)C3CC3OC4(CCC(C)CO4)C(C)C32)C1 (stereo not drawn) [BIA-H1764] | 86.38% | 124.08% | 85.47% | 116.07% | 117.31% | 105.95%
14 | COc1ccc(C2CC(=O)c3c(O)cc(OC4OC(COC5OC(C)C(O)C(O)C5O)C(O)C(O)C4O)cc3O2)cc1O (stereo not drawn) [BIA-H1766] | 83.53% | 99.72% | 111.90% | 121.98% | 124.64% | 85.96%
15 | CN1CCC2(c3cccc4c3NC3N(C)CCC43C34CCN(C)C3Nc3ccccc34)c3ccccc3NC12 (stereo not drawn) [BIA-H1948] | 8.04% | 0.51% | 10.24% | -13.19% | 27.32% | 71.35%
16 | COc1ccc2c(c1OC)C(=O)OC2C1c2cc3c(cc2CCN1C)OCO3 (stereo not drawn) [BIA-H1954] | 81.78% | 87.48% | 145.49% | 80.33% | 92.88% | 95.07%
17 | O=c1cc(O)c2nccc3c4ccccc4n1c23 [BIA-H1963] | 88.88% | 124.49% | 105.89% | 107.63% | 127.63% | 85.33%
18 | CNC1=NC(=O)C(C(C)c2c[nH]c3ccccc23)O1 (stereo not drawn) [BIA-I1040] | 33.91% | 55.84% | 17.78% | 16.99% | 45.17% | 47.91%
19 | COC1CC(OC2C(C)OC(OC3C(C)=CCC4CC(CC5(CCC(C)C(C(C)C)O5)O4)OC(=O)C4C=C(C)C(O)C5OCC(=CC=CC3C)C45O)CC2OC)OC(C)C1O (stereo not drawn) [BIA-I1117] | 83.64% | 117.79% | 88.89% | 109.63% | 121.89% | 92.41%
20 | CCC(C)C1OC2(CCC1C)CC1CC(CC=C(C)C(OC3CC(OC)C(OC4CC(OC)C(O)C(C)O4)C(C)O3)C(C)C=CC=C3COC4C(O)C(C)=CC(C(=O)O1)C34O)O2 (stereo not drawn) [BIA-I1119] | 86.44% | 71.84% | 82.92% | 106.39% | 98.36% | 101.63%
21 | CCC(C)C1OC2(CCC1C)CC1CC(CC=C(C)C(OC3CC(OC)C(O)C(C)O3)C(C)C=CC=C3COC4C(O)C(C)=CC(C(=O)O1)C34O)O2 (stereo not drawn) [BIA-I1150] | 84.82% | 14.34% | 91.15% | 112.03% | 134.07% | 88.13%
22 | CCC(C)C1OC2(CCC1C)CC1CC(CC=C(C)C(O)C(C)C=CC=C3COC4C(O)C(C)=CC(C(=O)O1)C34O)O2 (stereo not drawn) [BIA-I1151] | 82.86% | 77.78% | 87.69% | 91.70% | 121.58% | 95.56%
23 | CCC(C)C1OC2(CCC1C)CC1CC(CC=C(C)C(OC3CC(OC)C(OC4CC(OC)C(O)C(C)O4)C(C)O3)C(C)C=CC=C3COC4C(O)C(C)C=C(C(=O)O1)C34O)O2 (stereo not drawn) [BIA-I1581] | 5.59% | 2.07% | 16.87% | 11.19% | 33.19% | 43.03%
24 | COc1ccc(/C=C/C(=O)O)cc1O [BIA-I1729] | 80.53% | 116.78% | 85.87% | 112.77% | 136.89% | 92.18%
